Test results published in patent US20120122931A1, “INDOLE DERIVATIVE OR PHARMACEUTICALLY ACCEPTABLE SALT THEREOF” (KISSEI PHARMACEUTICAL CO., LTD., priority 2009, published 2012).

Molecular target: T1, rat EP1 receptor (Rattus norvegicus, UniProt P70597)
T1 construct: expressed in transfected cells; host or cells: COS-1 cells, transient transfection with Lipofectamine 2000
T1 sequence (P70597 1-405): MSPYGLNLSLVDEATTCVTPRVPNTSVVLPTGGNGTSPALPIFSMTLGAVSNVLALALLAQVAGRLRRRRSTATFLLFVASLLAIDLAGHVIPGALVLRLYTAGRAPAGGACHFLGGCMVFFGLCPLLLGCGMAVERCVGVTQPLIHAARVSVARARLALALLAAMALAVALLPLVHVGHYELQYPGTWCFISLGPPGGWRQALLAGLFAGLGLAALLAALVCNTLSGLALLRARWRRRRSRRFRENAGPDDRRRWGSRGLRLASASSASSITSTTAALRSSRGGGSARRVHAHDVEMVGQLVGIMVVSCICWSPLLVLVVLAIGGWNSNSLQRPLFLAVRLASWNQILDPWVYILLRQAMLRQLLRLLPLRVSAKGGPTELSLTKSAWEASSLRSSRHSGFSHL
Assay: Test for confirmation of EP1 receptor antagonism: inhibition of prostaglandin E2-induced increase in intracellular calcium concentration (Method A or Method B)
Assay type: cell-based
Conditions: Method B (Calcium kit II Fluo 4, FDSS 7000); rat EP1 receptor-expressing cells; prostaglandin E2 10 nM
Experimental: (1) Preparation of Rat EP1 Expression vector
Using Rat Kidney BD Marathon-Ready cDNA (Nippon Becton Dickinson Company, Ltd.) as a template, a forward primer shown in SEQ ID NO. 1, and a reverse primer shown in SEQ ID NO. 2, a first run of PCR was carried out using KOD-Plus-Ver 2.0 (Toyobo Co., Ltd.). Further, using this amplification product as a template, a forward primer shown in SEQ ID NO. 3, and a reverse primer shown in SEQ ID NO. 4, a second run of PCR was carried out in the same manner. The amplification product obtained by the second run of PCR was incorporated into a vector (pcDNA3.1 D/V5-His-TOPO (registered trademark), Invitrogen Japan K. K.). By a conventional method, the vector containing this amplification product was introduced to E. coli (One Shot TOP10 Competent Cells, Invitrogen Corporation) to transform. This transformed E. coli was cultured in an LB agar medium for one day. After the culture, colonies were selected and cultured in an LB liquid medium containing 50 μg/mL of ampicillin. After the culture, the vector was purified using a QIAprep Spin Miniprep Kit (Qiagen K. K.). The base sequence of the insertion site of this vector (SEQ ID NO. 5) was compared with the rat EP1 base sequence (Ptger1) registered as an accession number NM_013100 in well-known database (NCBI), and as a result, they all matched except for a single base. Further, the amino acid sequence translated by the base sequence completely matched the amino acid sequence of the rat EP1 receptor registered as an NCBI accession number NP_037232. Therefore, it was confirmed that the cloned gene sequence was a base sequence of the rat EP1 receptor and the obtained amino acid sequence was that of the rat EP1 receptor. The pcDNA3.1 D/V5-His-TOPO (registered trademark) to which the nucleic acid shown in SEQ ID NO. 5 had been inserted was taken as a rat EP1-expressing vector.
(2) Preparation of Rat EP1 Receptor-Expressing Cells
COS-1 cells (Dainippon Sumitomo Pharma Co., Ltd.) were cultured until it reached confluence in an incubator at 37° C. under a 5% CO2 gas condition, using a D-MEM liquid medium (high glucose and L-glutamine contained, Invitrogen Corporation) to which a penicillin-streptomycin solution (Invitrogen Corporation, final concentration: 100 U/mL as benzylpenicillin; 100 μg/mL as streptomycin) as an antibiotic, MEM nonessential amino acids (Invitrogen Corporation, final Concentration: 0.1 mM), and fetal calf serum (Sanko Junyaku Co., Ltd., final concentration: 10%) were added.
(2-2) COS-1 Cell Subculture
The cells that had reached confluence were stripped with 0.05% trypsin/0.53 mM EDTA 4Na (Invitrogen Japan K. K.) and resuspended in the above liquid medium. The resuspended cells were diluted and cultured in the above liquid medium at a spread ratio from 1:4 to 1:8.
(2-3) Preparation of Cells for Introduction of Rat EP1-Expressing Vector
The cells that had reached confluence were stripped with 0.05% trypsin/0.53 mM EDTA.4Na, and resuspended in a D-MEM liquid medium (high glucose and L-glutamine contained, Invitrogen Corporation) to which an MEM nonessential amino acid (final concentration: 0.1 mM) and fetal calf serum (final concentration: 10%) were added. In each well of a Poly D-lysine-coated 96-well microplate (BD BioCoat (registered trademark), Nippon Becton Dickinson Company, Ltd.), this resuspended cell suspension culture was prepared to be 5×10^4 cells/well in 100 μL of the liquid medium, and seeded thereon. After seeding, the cells were cultured in an incubator at 37° C. under a 5% CO2 gas condition. At a point when the cells for introduction of a rat EP1-expressing vector were adhered (about 2 hours after seeding), introduction of the rat EP1-expressing vector was carried out in the following order.
(2-4) Introduction of Rat EP1-Expressing Vector
For introduction of the rat EP1-expressing vector, Lipofectamine 2000 (Invitrogen Japan K. K.) was used. […]

IC50 [nM] | Structure (SMILES)
32 | O=C(O)c1cccc(Cc2c(-c3ccccc3)[nH]c3cc(C4CC4)ccc23)n1 [Example 16-8, 6-(6-cyclopropyl-2-phenyl-1H-indol-3-ylmethyl)pyridine-2-carboxylic acid]
41 | COc1ccc2c(Cc3cccc(C(=O)O)c3F)c(-c3ccccc3)[nH]c2c1 [Example 16-9, 2-fluoro-3-(6-methoxy-2-phenyl-1H-indol-3-ylmethyl)benzoic acid]
27 | COc1ccc2c(Cc3cccc(C(=O)O)n3)c(-c3cncc(F)c3)[nH]c2c1 [Example 16-11, 6-[2-(5-fluoropyridin-3-yl)-6-methoxy-1H-indol-3-ylmethyl]pyridine-2-carboxylic acid]
23 | COc1cc2[nH]c(-c3ccccc3)c(Cc3cccc(C(=O)O)n3)c2cc1C [Example 16-12, 6-(6-methoxy-5-methyl-2-phenyl-1H-indol-3-ylmethyl)pyridine-2-carboxylic acid]
36 | COc1cc2[nH]c(-c3ccccc3)c(Cc3cccc(C(=O)O)n3)c2cc1Cl [Example 16-13, 6-(5-chloro-6-methoxy-2-phenyl-1H-indol-3-ylmethyl)pyridine-2-carboxylic acid]
25 | COc1cc2[nH]c(-c3ccccc3)c(Cc3cccc(C(=O)O)n3)c2cc1F [Example 16-16, 6-(5-fluoro-6-methoxy-2-phenyl-1H-indol-3-ylmethyl)pyridine-2-carboxylic acid]
30 | COc1ccc2c(Cc3ccc(F)c(C(=O)O)c3)c(-c3ccccc3)[nH]c2c1 [Example 16-18, 2-fluoro-5-(6-methoxy-2-phenyl-1H-indol-3-ylmethyl)benzoic acid]
24 | Cc1ccc2c(Cc3cccc(C(=O)O)n3)c(-c3ccsc3)[nH]c2c1 [Example 16-21, 6-(6-methyl-2-thiophen-3-yl-1H-indol-3-ylmethyl)pyridine-2-carboxylic acid]
34 | COc1cc2c(Cc3cccc(C(=O)O)n3)c(-c3ccccc3)[nH]c2cc1Cl [Example 16-23, 6-(6-chloro-5-methoxy-2-phenyl-1H-indol-3-ylmethyl)pyridine-2-carboxylic acid]
22 | COc1cc2[nH]c(-c3ccsc3)c(Cc3cccc(C(=O)O)n3)c2cc1C [Example 16-24, 6-(6-methoxy-5-methyl-2-thiophen-3-yl-1H-indol-3-ylmethyl)pyridine-2-carboxylic acid]
30 | COc1cc2[nH]c(-c3ccsc3)c(Cc3cccc(C(=O)O)n3)c2cc1F [Example 16-28, 6-(5-fluoro-6-methoxy-2-thiophen-3-yl-1H-indol-3-ylmethyl)pyridine-2-carboxylic acid]
27 | COc1cc2[nH]c(-c3ccsc3)c(Cc3cccc(C(=O)O)n3)c2cc1Cl [Example 16-29, 6-(5-chloro-6-methoxy-2-thiophen-3-yl-1H-indol-3-ylmethyl)pyridine-2-carboxylic acid]
36 | O=C(O)c1cccc(Cc2c(-c3ccccc3)[nH]c3cc(Br)ccc23)n1 [Example 16-38]
11 | Cc1cc2[nH]c(-c3ccccc3)c(Cc3cccc(C(=O)O)n3)c2cc1C [Example 16-44, 6-(5,6-dimethyl-2-phenyl-1H-indol-3-ylmethyl)pyridine-2-carboxylic acid]
26 | O=C(O)c1cccc(Cc2c(-c3ccccc3)[nH]c3cc(C(F)(F)F)c(F)cc23)n1 [Example 16-45]
27 | Cc1ccc2c(Cc3cccc(C(=O)O)n3)c(-c3ccc(F)cc3)[nH]c2c1 [Example 16-48, 6-[2-(4-fluorophenyl)-6-methyl-1H-indol-3-ylmethyl]pyridine-2-carboxylic acid]
14 | Cc1cc2[nH]c(-c3ccsc3)c(Cc3cccc(C(=O)O)n3)c2cc1C [Example 16-51, 6-(5,6-dimethyl-2-thiophen-3-yl-1H-indol-3-ylmethyl)pyridine-2-carboxylic acid]
43 | O=C(O)c1cccc(Cc2c(-c3ccsc3)[nH]c3cc(Cl)c(F)cc23)n1 [Example 16-52, 6-(6-chloro-5-fluoro-2-thiophen-3-yl-1H-indol-3-ylmethyl)pyridine-2-carboxylic acid]
31 | Cc1cc2[nH]c(-c3ccccc3)c(Cc3cccc(C(=O)O)n3)c2cc1F [Example 16-53, 6-(5-fluoro-6-methyl-2-phenyl-1H-indol-3-ylmethyl)pyridine-2-carboxylic acid]
47 | Cc1cc2[nH]c(-c3ccc(F)cc3)c(Cc3cccc(C(=O)O)n3)c2cc1F [Example 16-54, 6-[5-fluoro-2-(4-fluorophenyl)-6-methyl-1H-indol-3-ylmethyl]pyridine-2-carboxylic acid]
39 | Cc1cc2[nH]c(-c3ccsc3)c(Cc3cccc(C(=O)O)n3)c2cc1F [Example 16-56, 6-(5-fluoro-6-methyl-2-thiophen-3-yl-1H-indol-3-ylmethyl)pyridine-2-carboxylic acid]
38 | Cc1cc2[nH]c(-c3cccnc3)c(Cc3cccc(C(=O)O)n3)c2cc1C [Example 16-58, 6-(5,6-dimethyl-2-pyridin-3-yl-1H-indol-3-ylmethyl)pyridine-2-carboxylic acid]
19 | Cc1cc2c(Cc3cccc(C(=O)O)n3)c(-c3ccccc3)[nH]c2cc1Cl [Example 16-59, 6-(6-chloro-5-methyl-2-phenyl-1H-indol-3-ylmethyl)pyridine-2-carboxylic acid]
32 | CCOc1ccc2c(Cc3cccc(C(=O)O)n3)c(-c3ccc(F)cc3)[nH]c2c1 [Example 16-60, 6-[6-ethoxy-2-(4-fluorophenyl)-1H-indol-3-ylmethyl]pyridine-2-carboxylic acid]
43 | CCOc1ccc2c(Cc3cccc(C(=O)O)n3)c(-c3ccsc3)[nH]c2c1 [Example 16-61, 6-(6-ethoxy-2-thiophen-3-yl-1H-indol-3-ylmethyl)pyridine-2-carboxylic acid]
27 | O=C(O)c1cccc(Cc2c(-c3ccc(F)cc3)[nH]c3cc(C4CC4)ccc23)n1 [Example 16-62, 6-[6-cyclopropyl-2-(4-fluorophenyl)-1H-indol-3-ylmethyl]pyridine-2-carboxylic acid]
14 | O=C(O)c1cccc(Cc2c(-c3ccsc3)[nH]c3cc(C4CC4)ccc23)n1 [Example 16-65, 6-(6-cyclopropyl-2-thiophen-3-yl-1H-indol-3-ylmethyl)pyridine-2-carboxylic acid]
30 | COc1cc2[nH]c(-c3cccnc3)c(Cc3cccc(C(=O)O)n3)c2cc1C [Example 16-66, 6-(6-methoxy-5-methyl-2-pyridin-3-yl-1H-indol-3-ylmethyl)pyridine-2-carboxylic acid]
22 | O=C(O)c1cccc(Cc2c(-c3cccnc3)[nH]c3cc(C4CC4)ccc23)n1 [Example 16-67, 6-(6-cyclopropyl-2-pyridine-3-yl-1H-indol-3-ylmethyl)pyridine-2-carboxylic acid]
